Reference: US6080396A, “Anthracycline compound derivative and pharmaceutical preparation containing the same” (Japan Science and Technology Corporation, priority 1995, dated 2000)
Counter-ions that a name gives are not always drawn.

How the values were obtained:
[1] = Drug concentration in blood plasma by radioactivity (Application Example 2); conditions: for % of dose/ml (blood plasma): i.v., total of adriamycin and adriamycin dimer, 14C
Description: Colon 26 adenocarcinoma cells were transplanted subcutaneously in the subaxillary region of each CDF1 female mouse, to which the block copolymer-drug complex pharmaceutical preparation prepared in Example 6 or 7 or ^14 C-labeled adriamycin hydrochloride was intravenously administered 12 days after transplanting. Each drug was used by diluting it in physiological saline prior to its use. After 15 minutes and 1, 4, 24 and 48 hours of the administration, blood samples were collected and various organs were excised. The drug concentrations in the blood plasma and each internal organ were determined by measuring radioactivity thereof using a liquid scintillation counter. In this test, both adriamycin and adriamycin dimer are labeled with ^14 C.

[2] = LD50 for comparison of chemotherapeutic index (Table 2); conditions: mouse, in vivo, iv
Description: (§1) When the volume of the tumor reached around 100 mm^3, the block copolymer-drug complex pharmaceutical preparation synthesized in Example 3, 4 or 5 or adriamycin hydrochloride was intravenously administered once a day every 4th day in total of three times (indicated by arrows in the drawings) to examine their antitumor effects. […] Each dose was determined as the amount of adriamycin of the peak 1 of the HPLC chromatogram. The antitumor effects of each drug were estimated based on the tumor growth curve, the number of mice in which the tumor disappeared and the chemotherapeutic index. The results are shown in Tables 1 and 2 and FIGS. 16 and 17.

[3] = Drug concentration in heart by radioactivity (Application Example 2); format: in vivo, CDF1 female mouse; conditions: mouse, iv, i.v., total of adriamycin and adriamycin dimer, 14C, read-out: % of dose/g (heart)
[4] = system: mouse Colon 26 adenocarcinoma; assay: Antitumor activity on mouse Colon 26 adenocarcinoma (Application Example 1); format: in vivo; conditions: for Tumor-disappeared mice: i.v., every 4th day, three times
Description: as §1

[5] = system: mouse Colon 26 adenocarcinoma; assay: Antitumor activity on mouse Colon 26 adenocarcinoma (Application Example 3); format: in vivo; conditions: i.v., every 4th day, three times
Description: In the case of the pharmaceutical preparation of Example 8, its effect obtained from the only first administration was also examined. […] Each dose was determined as the amount of adriamycin of the peak 1 of the HPLC chromatogram. The antitumor effects of each drug were estimated based on the tumor growth curve and the number of mice in which the tumor disappeared. The results are shown in Table 6 and FIGS. 25, 26 and 27.

[6] = Drug concentration in tumor by radioactivity (Application Example 2); format: in vivo, CDF1 female mouse; conditions: mouse, iv, i.v., total of adriamycin and adriamycin dimer, 14C, read-out: % of dose/g (tumor)

COc1cccc2c1C(=O)c1c(O)c3c(c(O)c1C2=O)C[C@@](O)(C(=O)CO)C[C@@H]3O[C@H]1C[C@H](N)[C@H](O)[C@H](C)O1 [Adriamycin hydrochloride, adriamycin hydrochloride]
% of dose/ml (blood plasma) ([1]; 15 minutes): 0.47 % of dose/ml
% of dose/ml (blood plasma) ([1]; 1 hour): 0.29 % of dose/ml
% of dose/ml (blood plasma) ([1]; 4 hours): 0.36 % of dose/ml
% of dose/ml (blood plasma) ([1]; 24 hours): 0.10 % of dose/ml
% of dose/ml (blood plasma) ([1]; 48 hours): 0.07 % of dose/ml
drug retention in blood plasma ([1]; mouse, in vivo): quickly disappeared from blood plasma
LD50 [2]: 15 mg/kg
tissue uptake at 0.25 h ([3]; 15 minutes): 10.5 %ID/g
tissue uptake at 1 h ([3]; 1 hour): 7 %ID/g
tissue uptake at 4 h ([3]; 4 hours): 4.6 %ID/g
tissue uptake at 24 h ([3]; 24 hours): 1.1 %ID/g
tissue uptake at 48 h ([3]; 48 hours): 0.5 %ID/g
Tumor-disappeared mice ([4]; 5 mg/kg): 0/5
Tumor-disappeared mice ([4]; 10 mg/kg): 2/5
Min T/C42 (minimum dose when T/C (%) becomes 42% or less on the 14th day after the initial administration) ([4]; 14th day after initial administration): 5.95
C. index (chemotherapeutic index: LD50/(Min T/C42)) ([4]; LD50 /(Min T/C42)): 2.52
Tumor-disappeared mice ([5]; 5 mg/kg): 0/5
Tumor-disappeared mice ([5]; 10 mg/kg): 2/5
tissue uptake at 0.25 h ([6]; 15 minutes): 2.3 %ID/g
tissue uptake at 1 h ([6]; 1 hour): 2.4 %ID/g
tissue uptake at 4 h ([6]; 4 hours): 1.7 %ID/g
tissue uptake at 24 h ([6]; 24 hours): 1.3 %ID/g
tissue uptake at 48 h ([6]; 48 hours): 1 %ID/g
